We go through 56 compounds from US8778966B2, “Quinolinone derivatives as PARP and tank inhibitors” (Janssen Pharmaceutica, NV, priority 2007, dated 2014).

In one data set the test system is HCT116 cells. Description: Mitotic arrest assay on HCT116 cells (phospho-histone H3 Ser10). The format is cell-based, human. The conditions noted are these: Homo sapiens, HCT-116, HCT116 cells; lowest active dose; read-out: Mitotic arrest HCT116 LAD (converted). Summed up:
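Seeded overnight, then compound-treated 6 h at 37 °C (≤0.1% DMSO); fixed, stained with Alexa Fluor 488 anti-phospho-H3 (Ser10) plus Hoechst 33342, imaged on InCell Analyzer 1000. Blank-subtracted signal divided by SD (sigma), triplicate; value is lowest dose giving sigma >5 (LAD).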

For another data set, the system named is tubulin. Description: Tubulin polymerization assay. The conditions noted are these: tested at 20 μM and 5 μM. On the set-up: key: a compound showing 0 to 50% inhibition at 20 μM is reported as score 1; Score 2 compounds are defined as compound showing more than 50% inhibition at 20 μM and less than 50% inhibition at 5 μM; a compound showing more than 50% inhibition at 5 μM is reported as score 3. The class given is biochemical. An outline of the steps:
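Cytoskeleton kit tubulin was run in a 10 µl final volume at 37 °C, with fluorescence read every minute for 1 h. Polymerization was taken as the maximum slope (4-point linear regression) and expressed as % of no-compound control. Compounds were tested at 20 µM, then at 5 µM if inhibition exceeded 50%, and scored by % inhibition.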

Molecules are shown by their SMILES.

Take `CCc1cc2ccc([C@@](C)(C#N)Cc3cccc(N(C)C)c3)cc2[nH]c1=O` (single isomer, unassigned) [Compound 258]: the minimal effective concentration in the data set on HCT116 cells was 0.1 µM.

For `CCc1cc2ccc([C@](C)(C#N)Cc3cccc(N(C)C)c3)cc2[nH]c1=O` (single isomer, unassigned) [Compound 259], in the data set on HCT116 cells, the minimal effective concentration is 10 µM.

Take `CCC[C@@](C#N)(Cc1ccccc1)c1ccc2cc(CC)c(=O)[nH]c2c1` (single isomer, unassigned) [Compound 263]: the minimal effective concentration with HCT116 cells is 1 µM.

Take `CCC[C@](C#N)(Cc1ccccc1)c1ccc2cc(CC)c(=O)[nH]c2c1` (single isomer, unassigned) [Compound 264]: the minimal effective concentration in the data set with HCT116 cells was 10 µM.

In the case of `CCc1cc2ccc([C@@](C)(C#N)Cc3cccc(C#N)c3)cc2[nH]c1=O` (single isomer, unassigned) [Compound 268], the minimal effective concentration with HCT116 cells was 10 µM. Also, in the data set with tubulin, the tubulin polymerisation score was 1 (a compound showing 0 to 50% inhibition at 20 μM is reported as score 1).

As to `CCc1cc2ccc([C@](C)(C#N)Cc3cccc(C#N)c3)cc2[nH]c1=O` (single isomer, unassigned) [Compound 269], the minimal effective concentration in the data set with HCT116 cells was 0.1 µM. In the data set with tubulin, this compound yielded a tubulin polymerisation score of 2.

In the case of `CCc1cc2ccc([C@](C)(C#N)C[C@@H]3Cc4cc(C)ccc4O3)cc2[nH]c1=O` (single isomer, unassigned) [Compound 400], the minimal effective concentration in the data set on HCT116 cells is 10 µM.

Take `Cc1cc2ccc(C(C)(C#N)Cc3cccc(C#N)c3)cc2[nH]c1=O` (stereo not shown) [Compound 34]: the melting point is 260 °C. Further, the minimal effective concentration in the data set with HCT116 cells is 0.1 µM.

As to `Cc1cc2ccc([C@@](C)(C#N)Cc3cccc(C#N)c3)cc2[nH]c1=O` [Compound 35], the melting point was determined as 233 °C. In addition, the minimal effective concentration with HCT116 cells was 3.16 µM.

In the case of `CC(C)c1cc2ccc(C(C)(C#N)Cc3ccccc3)cc2[nH]c1=O` (stereo not shown) [Compound 38], the melting point is 178 °C. For the same compound, the minimal effective concentration with HCT116 cells was 3.16 µM.

The compound `CC(=O)c1cc2ccc(C(C)(C#N)Cc3ccccc3)cc2[nH]c1=O` (stereo not shown) [Compound 39] gave a melting point of 194 °C. The minimal effective concentration with HCT116 cells was 3.16 µM.

For `CCc1cc2ccc(C(C)(C#N)Cc3cccc(OC[C@@H](O)CO)c3)cc2[nH]c1=O` (stereo partly shown) [Compound 56], the minimal effective concentration in the data set on HCT116 cells is 3 µM.

Regarding `CCc1cc2ccc(C(C)(C#N)Cc3cccc(CNS(C)(=O)=O)c3)cc2[nH]c1=O` (stereo not shown) [Compound 170], the minimal effective concentration in the data set on HCT116 cells is 3 µM.

Consider `CCc1cc2ccc([C@](C)(C#N)[C@H](C)c3ccccc3)cc2[nH]c1=O` [Compound 200], for which the minimal effective concentration in the data set on HCT116 cells was 0.3 µM.

With `CCc1cc2ccc(C(C)(C#N)Cc3cccc(C#C[Si](C)(C)C)n3)cc2[nH]c1=O` (stereo not shown) [Compound 210], in the data set with HCT116 cells, the minimal effective concentration is 1 µM.

For the compound `CCc1cc2ccc(C(C)(C#N)Cc3cccc(OCCOC)n3)cc2[nH]c1=O` (stereo not shown) [Compound 219], the minimal effective concentration with HCT116 cells is 1 µM.

Turning to `CCc1cc2ccc(C(C)(C#N)Cc3cccc(OCCO)c3)cc2[nH]c1=O` (stereo not shown) [Compound 262], the minimal effective concentration with HCT116 cells is 0.3 µM. For the same compound, the tubulin polymerisation score in the data set with tubulin came out at 2.

For the compound `CCc1cc2ccc(C(C)(C#N)CCOc3cccc(C(F)(F)F)c3)cc2[nH]c1=O` (stereo not shown) [Compound 274], the minimal effective concentration in the data set with HCT116 cells was 1 µM.

For the compound `CCc1cc2ccc(C(C)(C#N)Cc3cccc(CN)c3)cc2[nH]c1=O` (stereo not shown) [Compound 290], the minimal effective concentration in the data set on HCT116 cells was 0.3 µM. The tubulin polymerisation score in the data set on tubulin is on record as 1 (a compound showing 0 to 50% inhibition at 20 μM is reported as score 1).

For the compound `CCc1cc2ccc(C(C)(C#N)Cc3cccc(/C=C/S(C)(=O)=O)c3)cc2[nH]c1=O` (stereo not shown) [Compound 292], the minimal effective concentration with HCT116 cells is 0.1 µM.

Turning to `CCc1c(Cl)c2ccc(C(C)(C#N)Cc3cccc(C#N)c3)cc2[nH]c1=O` (stereo not shown) [Compound 293], in the data set on HCT116 cells, the minimal effective concentration was 0.3 µM.

As for `CCc1cc2cc(OC)c(C(C)(C#N)Cc3ccccc3)cc2[nH]c1=O` (stereo not shown) [Compound 294], the minimal effective concentration in the data set on HCT116 cells was 3 µM.

Turning to `CCc1cc2ccc(C(C)(C#N)Cc3cccc(C#CCOC)c3)cc2[nH]c1=O` (stereo not shown) [Compound 297], in the data set on HCT116 cells, the minimal effective concentration was 0.3 µM.

For `CCc1cc2ccc(C(C)(C#N)Cc3cccc(C#CCN(C)C)c3)cc2[nH]c1=O` (stereo not shown) [Compound 298], the minimal effective concentration in the data set with HCT116 cells was 1 µM.

Regarding `CCc1cc2ccc(C(C)(C#N)CNCc3cccc(C#N)c3)cc2[nH]c1=O` (stereo not shown) [Compound 301], the minimal effective concentration in the data set on HCT116 cells is 1 µM.

In the case of `CCc1cc2ccc(C(C)(C#N)Cc3cnc(Cl)nc3Cl)cc2[nH]c1=O` (stereo not shown) [Compound 306], the minimal effective concentration with HCT116 cells was 10 µM.

For the compound `COc1cc(OC)nc(CC(C)(C#N)c2ccc3cc(C)c(=O)[nH]c3c2)n1` (stereo not shown) [Compound 308], the minimal effective concentration with HCT116 cells was 0.1 µM. The tubulin polymerisation score with tubulin is 2.

Turning to `CCOc1cc(OCC)nc(CC(C)(C#N)c2ccc3cc(CC)c(=O)[nH]c3c2)n1` (stereo not shown) [Compound 309], the minimal effective concentration in the data set on HCT116 cells is 1 µM.

With `CCc1cc2ccc(C(C)(C#N)Cc3cccc(Cl)n3)cc2[nH]c1=O` (stereo not shown) [Compound 310], the minimal effective concentration with HCT116 cells was 0.3 µM.

`CCc1cc2ccc(C(C)(C#N)Cc3ncc(C)c(OC)c3C)cc2[nH]c1=O` (stereo not shown) [Compound 311]: in the data set with HCT116 cells, the minimal effective concentration is 1 µM.

As to `CCc1cc2ccc(C(C)(C#N)Cc3ccc(C)nc3)cc2[nH]c1=O` (stereo not shown) [Compound 327], the minimal effective concentration in the data set with HCT116 cells was 3 µM. Also, in the data set on tubulin, the tubulin polymerisation score is reported as 1 (a compound showing 0 to 50% inhibition at 20 μM is reported as score 1).

As to `CCc1cc2ccc(C(C)(C#N)Cc3cccc(C#N)n3)cc2[nH]c1=O` (stereo not shown) [Compound 329], the minimal effective concentration with HCT116 cells is 0.3 µM. Further, the tubulin polymerisation score in the data set on tubulin is on record as 3 (a compound showing more than 50% inhibition at 5 μM is reported as score 3).

As for `CCCn1ccnc1CC(C)(C#N)c1ccc2cc(CC)c(=O)[nH]c2c1` (stereo not shown) [Compound 335], the minimal effective concentration with HCT116 cells is 3 µM.

Take `CCc1cc2ccc(C(C)(C#N)Cc3ccc4ccccc4n3)cc2[nH]c1=O` (stereo not shown) [Compound 336]: in the data set with HCT116 cells, the minimal effective concentration is 1 µM.

For the compound `CCc1cc2ccc(C(C)(C#N)Cc3nccn3CC)cc2[nH]c1=O` (stereo not shown) [Compound 337], in the data set on HCT116 cells, the minimal effective concentration is 1 µM.

On to `CCc1cc2ccc(C(C)(C#N)Cc3nc4ccccc4n3C)cc2[nH]c1=O` (stereo not shown) [Compound 338], for which the minimal effective concentration in the data set on HCT116 cells was 0.3 µM. The tubulin polymerisation score in the data set on tubulin amounted to 2.

On to `CCc1cc2ccc(C(C)(C#N)Cc3cccc(C)n3)cc2[nH]c1=O` (stereo not shown) [Compound 343], for which, in the data set with HCT116 cells, the minimal effective concentration is 0.3 µM.

As to `CCc1cc2ccc(C(C)(C#N)Cc3cccc(Br)n3)cc2[nH]c1=O` (stereo not shown) [Compound 344], the minimal effective concentration in the data set with HCT116 cells was 0.3 µM.

Take `CCc1cc2ccc(C(C)(C#N)Cc3cccc(CO)n3)cc2[nH]c1=O` (stereo not shown) [Compound 345]: the minimal effective concentration in the data set on HCT116 cells is 0.3 µM. Moreover, in the data set on tubulin, the tubulin polymerisation score is listed as 2.

In the case of `CCc1cc2ccc(C(C)(C#N)Cc3ccc(OC)nc3)cc2[nH]c1=O` (stereo not shown) [Compound 352], the minimal effective concentration in the data set on HCT116 cells is 1 µM.

In the case of `CCc1cc2ccc(C(C)(C#N)Cc3cccc(OC)n3)cc2[nH]c1=O` (stereo not shown) [Compound 353], in the data set with HCT116 cells, the minimal effective concentration is 0.3 µM. This compound displayed a tubulin polymerisation score in the data set on tubulin of 2.

Take `CCc1cc2ccc(C(C)(C#N)Cc3cnc(OC)nc3Cl)cc2[nH]c1=O` (stereo not shown) [Compound 356]: in the data set on HCT116 cells, the minimal effective concentration was 0.1 µM.

Regarding `CCc1cc2ccc(C(C)(C#N)Cc3cnc(OC)nc3OC)cc2[nH]c1=O` (stereo not shown) [Compound 357], the minimal effective concentration in the data set on HCT116 cells is 0.3 µM.

In the case of `CCc1cc2ccc(C(C)(C#N)Cc3cc(OC)nc(OC)n3)cc2[nH]c1=O` (stereo not shown) [Compound 358], the minimal effective concentration with HCT116 cells is 0.3 µM. In addition, the tubulin polymerisation score in the data set with tubulin is recorded as 2.

Regarding `CCc1cc2ccc(C(C)(C#N)Cc3nc(Cl)cc(N(C)C)n3)cc2[nH]c1=O` (stereo not shown) [Compound 359], the minimal effective concentration with HCT116 cells is 0.1 µM. The compound further came in with a tubulin polymerisation score with tubulin of 2.

In the case of `CCc1cc2ccc(C(C)(C#N)Cc3nccc(OC)n3)cc2[nH]c1=O` (stereo not shown) [Compound 360], the minimal effective concentration in the data set with HCT116 cells was 1 µM. Further, the tubulin polymerisation score in the data set with tubulin is given as 2.

In the case of `CCc1cc2ccc(C(C)(C#N)Cc3cc(OCCOC)nc(C)n3)cc2[nH]c1=O` (stereo not shown) [Compound 363], the minimal effective concentration with HCT116 cells was 3 µM.

`CCc1cc2ccc(C(C)(C#N)Cc3cc(N(C)C)nc(Cl)n3)cc2[nH]c1=O` (stereo not shown) [Compound 364]: the minimal effective concentration in the data set on HCT116 cells was 1 µM.

As to `CCc1cc2ccc(C(C)(C#N)Cc3cc(OC)nc(C)n3)cc2[nH]c1=O` (stereo not shown) [Compound 366], the minimal effective concentration with HCT116 cells was 0.3 µM.

As to `CCc1cc2ccc(C(C)(C#N)Cc3cc(OCCOC)nc(Cl)n3)cc2[nH]c1=O` (stereo not shown) [Compound 367], the minimal effective concentration in the data set on HCT116 cells was 1 µM.

With `CCc1cc2ccc(C(C)(C#N)Cc3nc(C)cc(C)n3)cc2[nH]c1=O` (stereo not shown) [Compound 368], the minimal effective concentration with HCT116 cells was 1 µM.

Turning to `CCc1cc2ccc(C(C)(C#N)Cc3nccc(OCCOC)n3)cc2[nH]c1=O` (stereo not shown) [Compound 369], in the data set with HCT116 cells, the minimal effective concentration was 1 µM.

For `CCc1cc2ccc(C(C)(C#N)Cc3nc(Cl)cc(OCCOC)n3)cc2[nH]c1=O` (stereo not shown) [Compound 370], the minimal effective concentration with HCT116 cells is 1 µM.

Consider `CCc1cc2ccc(C(C)(C#N)Cc3cc(Cl)nc(Cl)c3)cc2[nH]c1=O` (stereo not shown) [Compound 372], for which the minimal effective concentration in the data set on HCT116 cells is 0.1 µM.

As to `CCc1cc2ccc(C(C)(C#N)Cc3cc(OC)ccn3)cc2[nH]c1=O` (stereo not shown) [Compound 373], in the data set with HCT116 cells, the minimal effective concentration was 1 µM.

Consider `CCc1cc2ccc(C(C)(C#N)CC3CCc4ccccc4O3)cc2[nH]c1=O` (stereo not shown) [Compound 399], for which the minimal effective concentration in the data set on HCT116 cells is 0.3 µM.
